The results in this text go back to patent US9862690B2, “Treatment of pulmonary and other conditions” (University of Pittsburgh—of the Commonwealth System of …, priority 2013, dated 2018).

Molecules are shown by their SMILES.

Series [1] is described as follows: FRAP assay (ferric reduction/anti-oxidant power). The format is biochemical. The conditions noted are these: 10 μmol compound, 5 min, 593 nm; Troxol reference. The protocol:
The antioxidant activity of PB141 was determined by ferric reduction/anti-oxidant power (FRAP) assay in which the compound is reacted with ferric tripyridyltriazine complex. Data are representative of one of two independent experiments; n=3; *** P<0.001 versus Troxol.
The antioxidant activity of PB141 or PB157 was determined by ferric reduction/anti-oxidant power (FRAP) assay in which the compounds are reacted with ferric tripyridyltriazine complex. The ferric complex was prepared at room temperature by reaction of ferric chloride (16.7 mmol) and 2,4,6-trispyridyl-s-triazine (8.33 mmol) in pH 3.6 acetate buffer (0.25 M). The FRAP reagent was used immediately after preparation. PB141 or PB157 (10 μmol) was added to the FRAP reagent (1 ml) and mixed by vortexing. The reaction was allowed to stabilize for 5 min and the absorbance was measured. The antioxidant activities of these compounds were determined by the ability to reduce the ferric complex to a […] ferrous complex, monitored at 593 nm. Troxol (10 μmol) was used as reference standard.

Series [2] deals with BEAS-2B cells. In kind it is cell-based. On the procedure: To evaluate cell viability, apoptosis, and cytotoxicity, the Apo Tox-Glo Triplex assay was used according to the manufacturer's instructions (Promega, Madison, Wis.). Briefly, the BEAS-2B cells were plated at 2×10^4 cells/well in 100 μl medium in an opaque walled, clear-bottomed, 96-well plate. After 24 hr culture, they were treated for a further indicated time with different concentrations of PB141 or PB157. At the end of the culture period, 20 μl viability/cytotoxicity reagent was added to each well, mixed by orbital shaking (300 r.p.m. for 30 s) and incubated for 30 min at 37° C. Fluorescence was then measured with excitation at 400 nm and emission at 505 nm to assess cell viability, and 485 nm excitation and 520 nm emission to assess cytotoxicity; both were quantified as relative fluorescence units (RFU). Then, 100 μl Caspase-Glo 3/7 reagent was added to each well, mixed by orbital shaking (300 r.p.m. for 30 s) and incubated for 30 min at room temperature. Luminescence was measured to assess caspase activation as a marker of apoptosis and quantified as relative luminescence units. Results for PB141 and PB157 were similar.

Series [3] is described as follows: TRAP assay (quenching of ABTS+ radical cation). In kind it is biochemical. The conditions noted are these: 10 μmol compound, 5 min, absorbance 734 nm; Troxol reference. The protocol: The anti-oxidant activities of PB 141 were determined by the ability of this compound to react with pre-formed radical monocation of 2,2′-azinobis-(3-ethylbenzothiazoline)-6-sulfonic acid (ABTS^+). Data are representative of one of two independent experiments; n=3; *** P<0.001 versus Troxol.
The anti-oxidant activity of PB141 or PB157 was determined by the ability of these compounds to react with the pre-formed radical monocation of 2,2′-azinobis-(3-ethylbenzothiazoline)-6-sulfonic acid (ABTS^+). ABTS (1.8 mmol) was reacted overnight with potassium persulfate (0.63 mmol) in double distilled water, at room temperature in the dark, to generate the dark blue ABTS^+ radical cation. This radical cation has a maximum absorption at 734 nm. Immediately prior to the experiment, ABTS^+ was diluted with absolute ethanol to an absorbance of approximately 0.7 at 734 nm. PB141 or PB157 (10 μmol) was added to ABTS^+ (1 ml) and mixed by vortexing. The reaction was allowed to stabilize for 5 min and the absorbance was measured. The anti-oxidant activities of these compounds were determined by their ability to quench the color of the radical cation. Troxol (10 μmol) was used as reference standard.

Take `CC(=O)N[C@@H](CSC(c1cnccn1)C1CCCC(C(SC[C@H](NC(C)=O)C(=O)O)c2cnccn2)C1=O)C(=O)O` (stereo partly shown) [PB157]: the “Antioxidant activity (reduction of ferric complex)” value in series [1] was “highly significant and approximately equal”. Besides, the Cytotoxicity result in series [2] was “without exhibiting cytotoxicity”. The “Apoptosis (caspase 3/7 activation)” value in series [2] (different concentrations, data not shown) is reported as “induced apoptosis”. Besides, the “Anti-oxidant activity (ability to quench ABTS+ radical cation)” value in series [3] is recorded as “clearly demonstrated”.
